The text below walks through data of patent US8981087B2, “Benzo [E] [1,3] oxazin-4-one derivatives as phosphoinositide 3-kinase inhibitors” (Karus Therapeutics Limited, priority 2009, dated 2015).

One test concerns the target PI3K-p110β (Homo sapiens, UniProt P42338). Put plainly: Biochemical PI3K-p110β inhibition.
Another test deals with PI3K-p110γ (Homo sapiens, UniProt P48736). Put plainly: Biochemical PI3K-p110γ inhibition.
The target in the next test is PI3K-p110δ (Homo sapiens, UniProt O00329). Kind of test: Biochemical PI3K-p110δ inhibition.
Another test has as its target PI3K-p110 α (Homo sapiens, UniProt P42336). Kind of test: Biochemical PI3K-p110α inhibition.

The structures appear in SMILES notation. pIC50: −log10 of the molar value. Where two headings read alike, the source gives them in different places.

Chain of PI3K-p110β (P42338 whole entry): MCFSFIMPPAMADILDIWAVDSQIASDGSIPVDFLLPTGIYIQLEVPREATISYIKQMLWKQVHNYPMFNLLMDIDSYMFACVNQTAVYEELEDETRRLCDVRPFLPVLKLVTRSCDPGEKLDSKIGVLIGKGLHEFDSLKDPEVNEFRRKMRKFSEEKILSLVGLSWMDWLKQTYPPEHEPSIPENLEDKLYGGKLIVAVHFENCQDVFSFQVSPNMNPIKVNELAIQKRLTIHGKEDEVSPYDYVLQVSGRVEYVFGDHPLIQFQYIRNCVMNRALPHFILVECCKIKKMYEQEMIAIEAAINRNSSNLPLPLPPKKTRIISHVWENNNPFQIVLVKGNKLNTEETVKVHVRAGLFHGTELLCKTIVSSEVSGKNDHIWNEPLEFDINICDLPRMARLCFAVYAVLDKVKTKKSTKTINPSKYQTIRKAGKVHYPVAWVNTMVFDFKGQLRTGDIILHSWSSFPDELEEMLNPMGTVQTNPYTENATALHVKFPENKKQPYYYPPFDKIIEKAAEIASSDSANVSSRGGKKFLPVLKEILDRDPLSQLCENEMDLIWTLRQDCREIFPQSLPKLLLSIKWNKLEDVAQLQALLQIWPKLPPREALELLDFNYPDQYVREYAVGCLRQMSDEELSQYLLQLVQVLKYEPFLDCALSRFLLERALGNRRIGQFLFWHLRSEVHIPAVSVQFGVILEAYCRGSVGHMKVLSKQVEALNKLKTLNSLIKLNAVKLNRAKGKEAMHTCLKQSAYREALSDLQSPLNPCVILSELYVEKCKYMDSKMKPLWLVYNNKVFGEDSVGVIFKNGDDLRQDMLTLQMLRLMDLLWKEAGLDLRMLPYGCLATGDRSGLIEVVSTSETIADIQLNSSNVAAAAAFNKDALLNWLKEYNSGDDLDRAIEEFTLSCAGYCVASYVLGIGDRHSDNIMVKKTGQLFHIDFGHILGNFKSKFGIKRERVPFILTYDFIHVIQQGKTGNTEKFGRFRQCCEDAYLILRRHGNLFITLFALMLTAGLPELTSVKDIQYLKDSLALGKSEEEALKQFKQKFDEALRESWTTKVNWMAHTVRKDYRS
Chain of PI3K-p110β (P27986 whole entry partner): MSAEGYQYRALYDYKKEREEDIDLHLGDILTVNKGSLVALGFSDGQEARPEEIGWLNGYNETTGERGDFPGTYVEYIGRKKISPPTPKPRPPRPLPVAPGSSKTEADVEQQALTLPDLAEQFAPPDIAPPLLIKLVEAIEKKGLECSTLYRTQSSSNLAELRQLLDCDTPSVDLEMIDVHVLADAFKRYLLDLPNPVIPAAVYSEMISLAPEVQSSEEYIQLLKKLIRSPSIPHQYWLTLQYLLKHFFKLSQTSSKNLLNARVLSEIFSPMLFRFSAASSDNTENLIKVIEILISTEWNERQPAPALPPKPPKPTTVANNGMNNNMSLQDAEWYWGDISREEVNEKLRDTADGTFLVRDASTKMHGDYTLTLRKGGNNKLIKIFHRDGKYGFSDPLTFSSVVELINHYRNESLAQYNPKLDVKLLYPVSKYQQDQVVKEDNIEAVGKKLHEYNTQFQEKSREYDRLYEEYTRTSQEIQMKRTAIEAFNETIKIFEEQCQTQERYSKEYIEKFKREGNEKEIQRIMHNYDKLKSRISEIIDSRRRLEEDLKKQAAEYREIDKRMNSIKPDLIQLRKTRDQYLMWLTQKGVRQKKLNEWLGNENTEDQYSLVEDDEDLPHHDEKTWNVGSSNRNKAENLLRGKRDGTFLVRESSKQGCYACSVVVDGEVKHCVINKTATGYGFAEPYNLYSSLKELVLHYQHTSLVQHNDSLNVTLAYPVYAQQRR
Chain of PI3K-p110γ (P48736 whole entry): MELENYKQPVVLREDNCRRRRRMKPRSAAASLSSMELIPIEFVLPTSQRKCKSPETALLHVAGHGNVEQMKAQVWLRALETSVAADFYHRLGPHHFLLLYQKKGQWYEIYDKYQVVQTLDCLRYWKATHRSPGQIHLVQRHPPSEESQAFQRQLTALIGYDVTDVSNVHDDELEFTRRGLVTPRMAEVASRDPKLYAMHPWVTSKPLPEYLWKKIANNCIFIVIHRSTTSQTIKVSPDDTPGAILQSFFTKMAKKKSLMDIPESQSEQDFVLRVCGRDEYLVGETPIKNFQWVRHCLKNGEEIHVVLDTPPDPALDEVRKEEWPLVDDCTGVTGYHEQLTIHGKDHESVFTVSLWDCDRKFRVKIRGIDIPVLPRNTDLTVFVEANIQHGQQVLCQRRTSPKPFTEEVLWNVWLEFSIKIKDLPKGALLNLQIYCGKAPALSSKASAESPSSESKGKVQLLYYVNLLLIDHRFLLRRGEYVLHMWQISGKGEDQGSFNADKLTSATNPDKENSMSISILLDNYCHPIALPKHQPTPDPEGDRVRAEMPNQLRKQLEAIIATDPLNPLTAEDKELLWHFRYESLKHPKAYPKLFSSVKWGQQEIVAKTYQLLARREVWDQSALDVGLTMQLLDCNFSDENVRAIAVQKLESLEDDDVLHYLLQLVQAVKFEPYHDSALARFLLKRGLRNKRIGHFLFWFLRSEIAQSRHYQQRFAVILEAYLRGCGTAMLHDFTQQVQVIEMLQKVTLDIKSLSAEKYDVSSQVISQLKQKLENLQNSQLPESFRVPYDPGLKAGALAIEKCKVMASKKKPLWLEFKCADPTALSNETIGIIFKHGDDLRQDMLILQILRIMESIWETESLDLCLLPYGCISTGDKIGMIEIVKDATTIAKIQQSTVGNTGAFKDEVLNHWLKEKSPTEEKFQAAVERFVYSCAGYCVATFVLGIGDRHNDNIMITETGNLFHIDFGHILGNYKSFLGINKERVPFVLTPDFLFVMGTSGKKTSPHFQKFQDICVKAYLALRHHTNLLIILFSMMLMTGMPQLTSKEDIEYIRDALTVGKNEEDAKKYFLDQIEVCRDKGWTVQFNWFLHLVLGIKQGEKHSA
Chain of PI3K-p110δ (O00329 whole entry): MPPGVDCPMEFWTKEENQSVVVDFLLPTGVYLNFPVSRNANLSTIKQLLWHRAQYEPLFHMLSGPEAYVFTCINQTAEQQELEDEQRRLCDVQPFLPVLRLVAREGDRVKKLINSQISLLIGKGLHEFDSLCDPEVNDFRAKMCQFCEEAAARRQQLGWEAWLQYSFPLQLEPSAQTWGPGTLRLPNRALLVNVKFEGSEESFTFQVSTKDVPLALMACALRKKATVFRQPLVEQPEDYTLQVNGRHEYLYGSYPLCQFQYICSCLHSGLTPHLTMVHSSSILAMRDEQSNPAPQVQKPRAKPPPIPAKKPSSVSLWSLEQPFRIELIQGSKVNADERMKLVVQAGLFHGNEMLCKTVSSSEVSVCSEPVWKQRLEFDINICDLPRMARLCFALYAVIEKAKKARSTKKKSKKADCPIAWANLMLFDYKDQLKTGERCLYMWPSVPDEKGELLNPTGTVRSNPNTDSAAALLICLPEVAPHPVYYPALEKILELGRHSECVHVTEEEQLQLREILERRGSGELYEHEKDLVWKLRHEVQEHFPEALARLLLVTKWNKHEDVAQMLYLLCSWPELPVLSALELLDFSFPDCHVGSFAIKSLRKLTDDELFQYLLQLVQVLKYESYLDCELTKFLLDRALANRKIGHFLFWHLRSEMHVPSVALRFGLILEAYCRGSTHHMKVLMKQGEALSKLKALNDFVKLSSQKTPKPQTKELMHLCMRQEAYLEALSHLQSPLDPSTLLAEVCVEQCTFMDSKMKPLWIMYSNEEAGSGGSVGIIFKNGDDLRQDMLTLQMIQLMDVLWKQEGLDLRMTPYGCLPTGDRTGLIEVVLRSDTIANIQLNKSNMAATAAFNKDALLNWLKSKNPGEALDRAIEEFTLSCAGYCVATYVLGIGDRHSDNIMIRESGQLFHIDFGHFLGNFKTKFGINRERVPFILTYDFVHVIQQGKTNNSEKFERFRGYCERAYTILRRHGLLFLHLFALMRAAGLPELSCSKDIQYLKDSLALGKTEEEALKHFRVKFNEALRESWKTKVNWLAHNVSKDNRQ
Chain of PI3K-p110δ (P27986 whole entry partner): as the sequence (P27986 whole entry partner) above
Chain of PI3K-p110 α (P42336 whole entry): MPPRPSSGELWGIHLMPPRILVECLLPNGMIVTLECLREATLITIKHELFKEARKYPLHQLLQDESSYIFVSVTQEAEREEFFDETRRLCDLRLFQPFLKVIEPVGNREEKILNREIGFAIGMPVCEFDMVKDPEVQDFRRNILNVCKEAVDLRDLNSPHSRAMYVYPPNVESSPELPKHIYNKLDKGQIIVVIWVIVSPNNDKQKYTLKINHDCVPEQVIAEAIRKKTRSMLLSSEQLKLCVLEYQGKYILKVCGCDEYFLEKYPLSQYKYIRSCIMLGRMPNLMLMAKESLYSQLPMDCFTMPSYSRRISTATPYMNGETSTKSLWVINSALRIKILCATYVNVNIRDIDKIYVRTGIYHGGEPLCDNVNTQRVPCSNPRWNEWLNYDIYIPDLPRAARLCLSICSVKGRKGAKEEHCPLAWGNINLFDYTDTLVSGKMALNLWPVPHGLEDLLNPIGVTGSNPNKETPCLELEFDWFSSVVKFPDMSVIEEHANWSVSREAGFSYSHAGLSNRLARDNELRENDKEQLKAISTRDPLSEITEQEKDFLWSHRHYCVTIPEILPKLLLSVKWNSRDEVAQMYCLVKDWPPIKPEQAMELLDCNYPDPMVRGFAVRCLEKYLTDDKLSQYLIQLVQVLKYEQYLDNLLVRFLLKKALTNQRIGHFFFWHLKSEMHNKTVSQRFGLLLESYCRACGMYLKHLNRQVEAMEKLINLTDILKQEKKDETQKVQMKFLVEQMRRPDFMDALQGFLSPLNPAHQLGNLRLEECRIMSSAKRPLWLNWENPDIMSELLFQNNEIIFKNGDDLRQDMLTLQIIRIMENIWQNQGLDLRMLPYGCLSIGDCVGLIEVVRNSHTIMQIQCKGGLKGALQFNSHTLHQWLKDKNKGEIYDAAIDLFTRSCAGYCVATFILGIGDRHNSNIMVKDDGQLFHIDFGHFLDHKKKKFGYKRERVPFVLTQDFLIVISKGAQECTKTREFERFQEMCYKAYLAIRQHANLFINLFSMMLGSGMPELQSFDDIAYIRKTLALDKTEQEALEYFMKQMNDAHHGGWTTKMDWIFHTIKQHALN
Chain of PI3K-p110 α (P27986 whole entry partner): as the sequence (P27986 whole entry partner) above

As for `Nc1ccc(-c2cccc3c(=O)nc(N4CCOCC4)oc23)cc1` [Compound A, 8-(4-aminophenyl)-2-morpholino-4H-benzo[e][1,3]oxazin-4-one], the IC50 on PI3K-p110β (Class IA enzyme, read-out: IC50 PI3K-p110β (uM) (Class IA Enzyme)) was found to be 2.34 µM; on PI3K-p110γ (Class IB enzyme, read-out: IC50 PI3K-p110γ (uM) (Class IB Enzyme)), 20.5 µM. Moreover, the “class IA/IB PI3K selectivity” value on PI3K-p110β (compared with industry-standard inhibitor LY294002, p110β vs p110γ) is “greater class IA/IB PI3K selectivity compared with industry-standard inhibitor, LY294002”.
On to `Nc1ccc(-c2cccc3c(=O)nc(N4CCOCC4)oc23)c(F)c1` [Compound B, 8-(4-Amino-2-fluoro-phenyl)-2-morpholin-4-yl-benzo[e][1,3]oxazin-4-one], for which the pIC50 at PI3K-p110β (read-out: IC50 PI3K-p110β) is 6.27; at PI3K-p110γ (read-out: IC50 PI3K-p110γ) it was 4.75; on PI3K-p110δ, 5.77; on PI3K-p110 α, 5.47. In addition, at PI3K-p110β (versus p110α, p110δ, p110γ), the “selectivity for PI3K-p110β” value is reported as “displays selectivity for PI3K-p110β”.

A word on the IC50: it is the point on the concentration scale where inhibition reaches its midpoint. For orientation: pIC50 means the IC50 on a negative log10 scale, so that one unit is a factor of ten.
